# Assay results taken from US12275729B2 (Merck Sharp & Dohme LLC, priority 2017, dated 2025).
# pIC50: −log10 of the molar value.
# Biological target: IDO1 (Homo sapiens, UniProt P14902)
# Assay: IDO1 Cellular Assay in HeLa Cells Stimulated with IFNγ
# Format: cell-based
# Details: about 48 hours, read-out: Hela IC50
# Procedure: Biological Assays IDO1 Cellular Assay in HeLa Cells Stimulated with IFNγ
# HeLa cells were cultured in complete HeLa culture medium (90% EMEM, 10% heat-inactivated fetal bovine serum) and expanded to about 1×10^9 cells. The cells were then collected and frozen down at 1×10^7 cells/vial in 1 mL frozen medium (90% complete HeLa culture medium, 10% DMSO).
# Compounds to be tested were serially diluted in ten 3-fold steps in DMSO starting from 10 mM DMSO stocks in Echo low volume plate(s).
# Frozen HeLa cells were thawed and transferred into HeLa assay medium (99% complete HeLa culture medium, 1% Pen/Strep) with 20 mL medium/vial of cells. The cells were spun down at 250 g in a table top centrifuge for 5 min and suspended in same volume of HeLa assay medium. The cells were then counted and adjusted to a density of 2×10^5 cells/mL in HeLa assay medium. Sterile L-tryptophan were added to the cells with final concentration of 300 uM L-tryptophan. A small aliquot (2 mL/plate) of HeLa cells were set aside and were not treated with IFNγ, to serve as the Max-E control.
# HeLa cells with and without IFNγ were dispensed to the respective wells of 384-well assay plates containing the compounds. The plates were incubated for about 48 hours at a 37° C., 5% CO2 incubator. Afterwards, 12 μL of 0.5 M methyl isonipecotate in dimethyl sulfoxide were added into each well and the plates were sealed and incubated at 37° C. without CO2 overnight. The plates were centrifuged for 1 min at 200×g. The resulting fluorescence was measured in a Spectramax plate reader (Molecular Devices) with a 400 nm excitation filter and a 510 nm emission filter.
# Potencies were calculated by […] least squares fit to the four parameter logistic IC50 equation.
# Sequence of IDO1 (P14902 whole entry): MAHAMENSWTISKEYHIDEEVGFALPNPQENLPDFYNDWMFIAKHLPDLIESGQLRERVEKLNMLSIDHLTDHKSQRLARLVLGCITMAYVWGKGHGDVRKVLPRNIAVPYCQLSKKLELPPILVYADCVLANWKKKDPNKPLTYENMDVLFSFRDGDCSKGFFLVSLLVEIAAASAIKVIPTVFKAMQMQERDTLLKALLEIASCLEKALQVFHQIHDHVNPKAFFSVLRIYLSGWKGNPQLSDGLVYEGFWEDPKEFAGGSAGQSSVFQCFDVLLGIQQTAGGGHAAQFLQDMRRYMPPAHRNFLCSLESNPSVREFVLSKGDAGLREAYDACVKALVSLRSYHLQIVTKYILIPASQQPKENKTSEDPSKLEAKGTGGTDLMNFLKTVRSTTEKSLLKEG
row,pIC50,Compound
1,6.98,"C[C@H](C(=O)Nc1ccc(F)cc1)c1ccc2c(c1)CCCN2C(=O)CC(F)(F)F [Example 91, (2S)-N-(4-fluorophenyl)-2-[1-(3,3,3-trifluoropropanoyl)-1,2,3,4-tetrahydroquinolin-6-yl]propanamide]"
2,7.97,"CC(C)(C(=O)Nc1ccc(F)cc1)c1ccc2c(n1)CCCN2C(=O)C1CC1 [Example 184, 2-[5-(cyclopropanecarbonyl)-5,6,7,8-tetrahydro-1,5-naphthyridin-2-yl]-N-(4-fluorophenyl)-2-methylpropanamide]"
3,6.63,"CC(NC(=O)c1ccc(F)cc1)c1ccc2c(c1)CCCN2C(CO)c1cccc(Cl)c1 (single isomer, unassigned) [Example 94]"
4,8.41,"Cc1cc(C(=O)N2CCCc3cc(C(C)C(=O)Nc4ccc(F)cc4)ccc32)no1 (stereo not shown) [Example 46, N-(4-fluorophenyl)-2-[1-(5-methyl-1,2-oxazole-3-carbonyl)-1,2,3,4-tetrahydroquinolin-6-yl]propanamide]"
5,7.36,"CC(C)[C@@H](O)C(=O)N1CCCc2cc([C@H](C)C(=O)Nc3ccc(F)cc3)ccc21 (single isomer, unassigned) [Example 72]"
6,6.38,"C[C@@H](NC(=O)c1ccc(F)cc1)c1ccc2c(n1)CCCN2C(=O)[C@@H]1CC1(F)F (single isomer, unassigned) [Example 135]"
7,7.01,"CC(C)CC(=O)N1c2ccc(CNC(=O)c3ccc(Cl)cc3)cc2CCC1(C)C [Example 13, 4-chloro-N-{[2,2-dimethyl-1-(3-methylbutanoyl)-1,2,3,4-tetrahydroquinolin-6-yl]methyl}benzamide]"
8,7.78,"C[C@H](C(=O)Nc1ccc(F)cn1)c1ccc2c(c1)CCCN2C(=O)C1(F)CC1 (single isomer, unassigned) [Example 63]"
9,8.03,"C[C@H](C(=O)Nc1ccc(F)cn1)c1ccc2c(c1)CCCN2C(=O)C1CC1 (single isomer, unassigned) [Example 61]"
10,6.47,"CC(NC(=O)c1ccc(F)cc1)c1ccc2c(n1)C(O)CCN2C(=O)C1CC1 (stereo not shown) [Example 196, N-(1-(5-(cyclopropanecarbonyl)-8-hydroxy-5,6,7,8-tetrahydro-1,5-naphthyridin-2-yl)ethyl)-4-fluorobenzamide]"
11,5.24,"CC(C(=O)Nc1ccc(F)cc1)c1ccc2c(c1)CCCN2C1CCOCC1 (stereo not shown) [Example 230, N-(4-fluorophenyl)-2-[1-(oxan-4-yl)-1,2,3,4-tetrahydroquinolin-6-yl]propanamide]"
12,8.66,"CC(NC(=O)c1ccc(F)cc1)c1ccc2c(n1)CCCN2C(=O)c1ncccc1F (stereo not shown) [Example 283, 2-(1-(4-fluorobenzamido)ethyl)-5-(3-fluoropicolinoyl)-5,6,7,8-tetrahydro-1,5-naphthyridin-1-ium 2,2,2-trifluoroacetate]"
13,8.16,"CC(C)CC(=O)N1CCCc2cc(CC(=O)Nc3ccc(Cl)cc3)ccc21 [Example 35, N-(4-chlorophenyl)-2-(1-(3-methylbutanoyl)-1,2,3,4-tetrahydroquinolin-6-yl)acetamide]"
14,7.37,"CC(C)CC(=O)N1CCCc2cc([C@H](C)NC(=O)c3ccc(Cl)cc3)ccc21 (single isomer, unassigned) [Example 27]"
15,6.64,"CC(NC(=O)c1ccc(F)cc1)c1ccc2c(n1)C(F)CCN2C(=O)C1CC1 (single isomer, unassigned) [Example 204, N-(1-(5-(cyclopropanecarbonyl)-8-fluoro-5,6,7,8-tetrahydro-1,5-naphthyridin-2-yl)ethyl)-4-fluorobenzamide]"
16,7.79,"O=C(NC1(c2ccc3c(n2)CCCN3C(=O)C2CCOCC2)CC1)c1ccc(F)cc1 [Example 172, 4-fluoro-N-{1-[5-(oxane-4-carbonyl)-5,6,7,8-tetrahydro-1,5-naphthyridin-2-yl]cyclopropyl}benzamide]"
17,8.12,"O=C(NC1(c2ccc3c(n2)CCCN3C(=O)C2CCCCO2)CC1)c1ccc(F)cc1 (stereo not shown) [Example 177, 4-fluoro-N-{1-[5-(oxane-2-carbonyl)-5,6,7,8-tetrahydro-1,5-naphthyridin-2-yl]cyclopropyl}benzamide]"
18,7.36,"CC(C(=O)Nc1ccc(F)cc1)c1ccc2c(c1)CCCN2Cc1cccc(Cl)c1 (single isomer, unassigned) [Example 226, 2-{1-[(3-chlorophenyl)methyl]-1,2,3,4-tetrahydroquinolin-6-yl}-N-(4-fluorophenyl)propanamide]"
19,7.59,"O=C(NC1(c2ccc3c(n2)CCCN3C(=O)C2CC2)CC1)c1ccc(F)cc1 [Example 168, N-{1-[5-(cyclopropanecarbonyl)-5,6,7,8-tetrahydro-1,5-naphthyridin-2-yl]cyclopropyl}-4-fluorobenzamide]"
20,8.83,"O=C(OC1CC1)N1CCCc2nc(C3(C(=O)Nc4ccc(Cl)cc4)COC3)ccc21 [compound 398, cyclopropyl 6-(3-((4-chlorophenyl)carbamoyl)oxetan-3-yl)-3,4-dihydro-1,5-naphthyridine-1(2H)-carboxylate]"
21,7.80,"CC(C)C(C(=O)Nc1ccc(F)cc1)c1ccc2c(n1)CCCN2C(=O)C1CC1 (stereo not shown) [Example 265, 2-(5-(cyclopropanecarbonyl)-5,6,7,8-tetrahydro-1,5-naphthyridin-2-yl)-N-(4-fluorophenyl)-3-methylbutanamide]"
22,7.42,"Cc1n[nH]c(C(=O)N2CCCc3cc(C(C)C(=O)Nc4ccc(F)cc4)ccc32)n1 (stereo not shown) [Example 42, N-(4-fluorophenyl)-2-[1-(3-methyl-1H-1,2,4-triazole-5-carbonyl)-1,2,3,4-tetrahydroquinolin-6-yl]propanamide]"
23,8.92,"CC(NC(=O)c1ccc(F)cc1)c1ccc2c(n1)CCCN2C(=O)c1cccc(C(F)(F)F)c1 (stereo not shown) [Example 284, 2-(1-(4-fluorobenzamido)ethyl)-5-(3-(trifluoromethyl)benzoyl)-5,6,7,8-tetrahydro-1,5-naphthyridin-1-ium 2,2,2-trifluoroacetate]"
24,7.17,"O=C(Nc1ccc(F)cn1)C1(c2ccc3c(c2)CCCN3S(=O)(=O)N2CCCC2)CCC1 [Example 122, N-(5-fluoropyridin-2-yl)-1-{1-[(pyrrolidin-1-yl)sulfonyl]-1,2,3,4-tetrahydroquinolin-6-yl}cyclobutane-1-carboxamide]"
25,7.25,"COc1ccc(C(=O)NCc2ccc3c(c2)CCCN3C(=O)CC(C)C)cc1 [Example 6, 4-methoxy-N-{[1-(3-methylbutanoyl)-1,2,3,4-tetrahydroquinolin-6-yl]methyl}benzamide]"
26,7.61,"CC(C)NC(=O)N1CCCc2nc([C@@H](C)C(=O)Nc3ccc(F)cc3)ccc21 [Example 217, 6-{(2R)-1-[(4-fluorophenyl)amino]-1-oxopropan-2-yl}-N-(propan-2-yl)-3,4-dihydro-1,5-naphthyridine-1(2H)-carboxamide]"
27,7.33,"CC(C)(O)c1cccc(N2CCCc3nc(C4(NC(=O)c5ccc(F)cc5)CC4)ccc32)n1 [Example 297, 4-fluoro-N-(1-(5-(6-(2-hydroxypropan-2-yl)pyridin-2-yl)-5,6,7,8-tetrahydro-1,5-naphthyridin-2-yl)cyclopropyl)benzamide]"
28,5.79,"CC(NC(=O)c1ccc(F)cc1)c1ccc2c(n1)CCCN2C(=O)C1(C)CCCCO1 (stereo in doubt) [Example 140, 4-fluoro-N-(1-{5-[(2R)-2-methyloxane-2-carbonyl]-5,6,7,8-tetrahydro-1,5-naphthyridin-2-yl}ethyl)benzamide]"

# Same assay, conditions: read-out: Hela IC50
row,pIC50,Compound
1,9.19,"CC(NC(=O)c1ccc(F)cc1)c1ccc2c(n1)CCCN2C(=O)OC1CCCC1 (stereo not shown) [Example 314, cyclopentyl 6-(1-(4-fluorobenzamido)ethyl)-3,4-dihydro-1,5-naphthyridine-1(2H)-carboxylate]"
2,8.08,"CC(NC(=O)c1ccc(Cl)cc1)c1ccc2c(n1)CCCN2c1nc(Cl)nc2c1CCCC2 (stereo not shown) [Example 361, 5-(2-chloro-5,6,7,8-tetrahydroquinazolin-4-yl)-2-(1-(4-chlorobenzamido)ethyl)-5,6,7,8-tetrahydro-1,5-naphthyridin-1-ium 2,2,2-trifluoroacetate]"
3,7.84,"CC(COC(=O)N1CCCc2nc(C(C)NC(=O)c3ccc(F)cc3)ccc21)Oc1ccccc1 (stereo not shown) [Example 327, 2-phenoxypropyl 6-(1-(4-fluorobenzamido)ethyl)-3,4-dihydro-1,5-naphthyridine-1(2H)-carboxylate]"
4,5.89,"CC(NC(=O)c1ccc(F)cc1)c1ccc2c(n1)CCCN2C(=O)OCCCn1ccnc1 (stereo not shown) [Example 325, 3-(1H-imidazol-1-yl)propyl 6-(1-(4-fluorobenzamido)ethyl)-3,4-dihydro-1,5-naphthyridine-1(2H)-carboxylate]"
5,7.11,"CC(C)Oc1cccc(N2CCCc3nc(C(C)NC(=O)c4ccc(Cl)cc4)ccc32)n1 (stereo not shown) [Example 353, 4-chloro-N-(1-(5-(6-isopropoxypyridin-2-yl)-5,6,7,8-tetrahydro-1,5-naphthyridin-2-yl)ethyl)benzamide]"
6,6.32,"CC(NC(=O)c1ccc(F)cc1)c1ccc2c(n1)CCCN2C(=O)OCCn1ccnc1 (stereo not shown) [Example 328, 2-(1H-imidazol-1-yl)ethyl 6-(1-(4-fluorobenzamido)ethyl)-3,4-dihydro-1,5-naphthyridine-1(2H)-carboxylate]"
